Laboratory results as given in paper doi:10.1101/2021.09.28.462154v2 (biorxiv, 2022).

Columns and labels:
[1] = molecular target: T1, OR1A1 (Homo sapiens, UniProt Q9P1Q5); assay: cAMP accumulation; assay type: biochemical
T1 sequence (Q9P1Q5 1-309): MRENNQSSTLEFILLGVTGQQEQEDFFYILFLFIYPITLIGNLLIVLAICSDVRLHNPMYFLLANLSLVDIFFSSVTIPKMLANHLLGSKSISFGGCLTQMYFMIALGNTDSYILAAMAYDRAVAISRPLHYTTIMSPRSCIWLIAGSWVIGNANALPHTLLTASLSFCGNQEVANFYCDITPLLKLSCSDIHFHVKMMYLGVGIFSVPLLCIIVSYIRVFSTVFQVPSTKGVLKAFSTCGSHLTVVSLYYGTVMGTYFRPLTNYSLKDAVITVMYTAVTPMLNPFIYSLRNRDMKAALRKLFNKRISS

[2] = molecular target: T2, OR5AN1 (Homo sapiens, UniProt Q8NGI8); assay: cAMP accumulation; assay type: biochemical
T2 sequence (Q8NGI8 1-311): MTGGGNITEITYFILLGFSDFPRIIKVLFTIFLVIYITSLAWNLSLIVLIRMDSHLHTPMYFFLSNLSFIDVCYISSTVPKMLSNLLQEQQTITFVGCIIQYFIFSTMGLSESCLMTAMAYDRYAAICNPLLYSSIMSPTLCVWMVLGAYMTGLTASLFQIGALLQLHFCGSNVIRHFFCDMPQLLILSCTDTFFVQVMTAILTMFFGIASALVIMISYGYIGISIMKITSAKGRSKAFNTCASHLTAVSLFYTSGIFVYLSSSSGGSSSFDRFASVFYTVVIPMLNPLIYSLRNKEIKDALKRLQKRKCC

| EC50 [1] | EC50 [2] | Compound |
| --- | --- | --- |
| 388 nM |  | CCCCCC(=O)C(C)C(C)=O (centres unmarked) [3-methyl-2,4-nonanedione] |
|  | 290 nM | C[C@@H]1CCCCCCCCCCCCC(=O)C1 [muscone] |
